This note sets out measurements from patent publication US20250340564A1, “COMPOSITIONS USEFUL FOR MODULATING SPLICING” (SKYHAWK THERAPEUTICS, INC., priority 2021, published 2025).

Test [1] has as its system ATXN3 transcripts containing exon 4 (E4E5) in SK-N-MC cells. Put plainly: ATXN3 Quantitative Splicing Assay (qPCR, E4E5 transcripts containing exon 4). In kind it is cell-based. The following applies: Homo sapiens, 24 h treatment, qPCR primers/probe E4E5. The procedure: Human neuroblastoma SK-N-MC cells were plated in 384-well plates at 20,000 cells/well. Twenty-four hours after plating, cells were treated with compounds for 24 h at appropriate concentrations ranging from 30 μM to 0.6 nM (0.3% DMSO). Treated cells were lysed in 15 μL of lysis buffer, and cDNA was synthesized using the Fast Advanced Cells-to-Ct kit. Two μL of each cDNA was used in qPCR reactions to confirm the exon 4 skipped transcripts of ATXN3. A second set of primers/probe E4E5 was used to detect the transcripts containing exon 4. The third set of primers/probe E8E9 was used to detect total gene level of ATXN3. The qPCR reactions were prepared in 384-well plates in 10 μL volume, using TaqMan™ Fast Advanced Master Mix with primers and probes shown in the table below. Reactions were run in a Quant Studio 6 qPCR instrument with default settings.
The primers and probes are listed below in Table 4.
(§1) Compounds were tested as outlined in Examples 2 and 3 above and the results are shown below in Table 5.

The subject of test [2] is total ATXN3 protein levels in SK-N-MC cells. Description: ATXN3 Total Protein Assay (MSD). In kind it is cell-based. The following applies: Homo sapiens, 48 hours incubation. On the procedure: Human neuroblastoma SK-N-MC cells were seeded at 10,000 cells/well in 384 well plates one day prior to compound treatment. The concentrations of compounds were tested at appropriate doses ranging from 30 μM to 0.6 nM. After incubation for 48 hours, the cells were lysed with 25 μL of lysis buffer containing protease inhibitors, and total ATXN3 protein levels were assessed by Mesoscale Discovery (MSD) assay developed with one pair of anti-ATXN3 antibodies. The capture and detect antibodies were raised in mouse and rabbit respectively. Anti-rabbit MSD-ST antibody was used for secondary antibody.
ATXN3 recombinant protein was used for standards. The readouts were captured with 35 μL of MSD read buffer and multi-array 384-well high binding plates.
as §1

A word on the IC50: it is the point on the concentration scale where inhibition reaches its midpoint. As to `Cc1csc2c(NCc3ccncc3F)cnnc12` [Compound 35, N-[(3-fluoropyridin-4-yl)methyl]-7-methylthieno[3,2-c]pyridazin-4-amine], the IC50 in test [1] and in test [2] was 10 to 40 µM each time.

In the case of `Cc1csc2c(NCc3ccncn3)cnnc12` [Compound 34, 7-methyl-N-[(pyrimidin-4-yl)methyl]thieno[3,2-c]pyridazin-4-amine], the IC50 in test [1] and in test [2] was 10 to 40 µM throughout.

Turning to `Clc1csc2c(NCc3ccncc3)cnnc12` [Compound 38, 7-chloro-N-[(pyridin-4-yl)methyl]thieno[3,2-c]pyridazin-4-amine], the half-maximal inhibitory concentration (IC50) in test [1] and in test [2] was 10 to 40 µM in each case.

As to `Cc1c(C[C@@H](N)CCO)sc2c(NCc3ccccc3)cnnc12` [Compound 42, (3S)-3-amino-4-[4-(benzylamino)-7-methylthieno[3,2-c]pyridazin-6-yl]butan-1-ol], the results for the IC50 in test [1] and in test [2] were 5 to 10 µM and 0.501 to 5 µM, respectively.

`Cc1c(C[C@H](C)N)sc2c(NCc3ccccc3)cnnc12` [Compound 37, 6-[(2S)-2-aminopropyl]-N-benzyl-7-methylthieno[3,2-c]pyridazin-4-amine]: the concentration for half-maximal inhibition (IC50) in test [1] and in test [2] was 0.501 to 5 µM throughout.

Consider `C[C@H](N)Cc1sc2c(NCc3ccncc3)cnnc2c1Cl` [Compound 8, 6-[(2S)-2-aminopropyl]-7-chloro-N-[(pyridin-4-yl)methyl]thieno[3,2-c]pyridazin-4-amine], for which the 50% inhibitory concentration (IC50) in test [1] and in test [2] was 10 to 40 µM each time.

As for `C[C@H](N)Cc1cc2nnc(Br)c(NCc3ccccc3)c2s1` [Compound 40, 6-[(2S)-2-aminopropyl]-N-benzyl-3-bromothieno[3,2-c]pyridazin-4-amine], the IC50 in test [1] and in test [2] was 10 to 40 µM each time.

Take `Cc1c(C[C@H](C)N)sc2c(NCc3ccccc3F)cnnc12` [Compound 6, 6-[(2S)-2-aminopropyl]-N-[(2-fluorophenyl)methyl]-7-methylthieno[3,2-c]pyridazin-4-amine]: the IC50 in test [1] was in the range of 0.501 to 5 µM; in test [2] it was 5 to 10 µM.

For the molecule `Brc1csc2c(NCc3ccncc3)cnnc12` [Compound 41, 7-bromo-N-[(pyridin-4-yl)methyl]thieno[3,2-c]pyridazin-4-amine], the values for the 50% inhibitory concentration (IC50) in test [1] and in test [2] were 0.101 to 0.5 µM and 10 to 40 µM, respectively.

Take `Cc1c(C[C@H](C)N)sc2c(NCc3ccncn3)cnnc12` [Compound 22, 6-[(2S)-2-aminopropyl]-7-methyl-N-[(pyrimidin-4-yl)methyl]thieno[3,2-c]pyridazin-4-amine]: the IC50 in test [1] and in test [2] was 10 to 40 µM throughout.

With `Cc1csc2c(NCc3ccccc3F)cnnc12` [Compound 36, N-[(2-fluorophenyl)methyl]-7-methylthieno[3,2-c]pyridazin-4-amine], the IC50 in test [1] and in test [2] was 10 to 40 µM in each case.

Consider `Cc1c(C[C@H](C)N)sc2c(NCc3ccncc3)cnnc12` [Compound 1, 6-[(2S)-2-aminopropyl]-7-methyl-N-[(pyridin-4-yl)methyl]thieno[3,2-c]pyridazin-4-amine], for which the IC50 in test [1] and in test [2] was 5 to 10 µM each time.

Consider `Cc1c(C[C@@H](N)CO)sc2c(NCc3ccccc3)cnnc12` [Compound 39, (2R)-2-amino-3-[4-(benzylamino)-7-methylthieno[3,2-c]pyridazin-6-yl]propan-1-ol], for which the IC50 in test [1] and in test [2] was 0.501 to 5 µM in each case.

Regarding `c1cc(CNc2cnnc3ccsc23)ccn1` [Compound 33, N-[(pyridin-4-yl)methyl]thieno[3,2-c]pyridazin-4-amine], the half-inhibitory concentration (IC50) in test [1] and in test [2] was 10 to 40 µM in each case.

Turning to `Cc1c(C[C@@H](N)CO)sc2c(NCc3ccccc3F)cnnc12` [Compound 7, (2R)-2-amino-3-(4-{[(2-fluorophenyl)methyl]amino}-7-methylthieno[3,2-c]pyridazin-6-yl)propan-1-ol], the IC50 in test [1] and in test [2] was 10 to 40 µM in each case.

As to `C[C@H](N)Cc1sc2c(NCc3ccncc3)cnnc2c1Br` [Compound 20, 6-[(2S)-2-aminopropyl]-7-bromo-N-[(pyridin-4-yl)methyl]thieno[3,2-c]pyridazin-4-amine], the half-inhibitory concentration (IC50) in test [1] is 5 to 10 µM; in test [2], 10 to 40 µM.

For the molecule `CC[C@H](N)Cc1sc2c(NCc3ccncc3)cnnc2c1C` [Compound 10, 6-[(2S)-2-aminobutyl]-7-methyl-N-[(pyridin-4-yl)methyl]thieno[3,2-c]pyridazin-4-amine], the concentration for half-maximal inhibition (IC50) in test [1] and in test [2] was 10 to 40 µM each time.

Consider `Cc1c(C[C@@H](N)CO)sc2c(NCc3ccncc3F)cnnc12` [Compound 5, (2R)-2-amino-3-(4-{[(3-fluoropyridin-4-yl)methyl]amino}-7-methylthieno[3,2-c]pyridazin-6-yl)propan-1-ol], for which the concentration for half-maximal inhibition (IC50) fell in the range of 5 to 10 µM in test [1] and 10 to 40 µM in test [2].

For the molecule `Cc1c(C[C@H](C)N)sc2c(NCc3ccncc3F)cnnc12` [Compound 4, 6-[(2S)-2-aminopropyl]-N-[(3-fluoropyridin-4-yl)methyl]-7-methylthieno[3,2-c]pyridazin-4-amine], the IC50 in test [1] lay in the range of 5 to 10 µM; in test [2] it was 10 to 40 µM.

In the case of `Cc1c(C[C@@H](N)CO)sc2c(NCc3ccncc3)cnnc12` [Compound 3, (2R)-2-amino-3-(7-methyl-4-{[(pyridin-4-yl)methyl]amino}thieno[3,2-c]pyridazin-6-yl)propan-1-ol], the half-maximal inhibitory concentration (IC50) in test [1] was in the range of 5 to 10 µM; in test [2], 10 to 40 µM.

On to `Cc1c(C[C@@H](N)CO)sc2c(NCc3ccncn3)cnnc12` [Compound 23, (2R)-2-amino-3-(7-methyl-4-{[(pyrimidin-4-yl)methyl]amino}thieno[3,2-c]pyridazin-6-yl)propan-1-ol], for which the 50% inhibitory concentration (IC50) in test [1] and in test [2] was 10 to 40 µM each time.

With `Cc1c(C[C@@H](N)CCO)sc2c(NCc3ccncc3)cnnc12` [Compound 11, (3S)-3-amino-4-(7-methyl-4-{[(pyridin-4-yl)methyl]amino}thieno[3,2-c]pyridazin-6-yl)butan-1-ol], the IC50 in test [1] and in test [2] was 10 to 40 µM throughout.
